Laboratory results reported in patent US4138403A, “Azabicycloheptanes” (Beecham Group Limited, priority 1975, dated 1979).

Legend:
Type in all cases: biochemical
[1] = target: β-lactamase Staph. Russell (Staphylococcus aureus, UniProt P00807); experiment: β-lactamase inhibition, Staph. Russell enzyme; conditions: read-out: % Inhibition of - lactamases at 40 μg/ml, Staph. Russell
Method: (§1) The β-lactamase inhibiting activity of certain compounds of the formula (e36) was determined by the method described in Belgian Patent No. 827,926 and the results are shown in Table 1.

β-lactamase Citrobac. = experiment: β-lactamase inhibition, Citrobac. enzyme
Method: as §1

β-lactamase Ps. dalgl. = β-lactamase Ps. dalgl. (Pseudomonas aeruginosa, UniProt P16897); experiment: β-lactamase inhibition, Ps. dalgl. enzyme; conditions: read-out: % Inhibition of - lactamases at 40 μg/ml, Ps. dalgl.
Method: as §1

β-lactamase Kleb. ε 70 = experiment: β-lactamase inhibition, Kleb. ε 70 enzyme
Method: as §1

β-lactamase Ps. aerug. = β-lactamase Ps. aerug. (Pseudomonas aeruginosa, UniProt P24735); experiment: β-lactamase inhibition, Ps. aerug. enzyme; conditions: read-out: % Inhibition of - lactamases at 40 μg/ml, Ps. aerug.
Method: as §1

β-lactamase E.Coli JT4 = β-lactamase E.Coli JT4 (Escherichia coli, UniProt P62593); experiment: β-lactamase inhibition, E.Coli JT4 enzyme; conditions: read-out: % Inhibition of - lactamases at 40 μg/ml, E.Coli JT4
Method: as §1

β-lactamase Proteus C889 = experiment: β-lactamase inhibition, Proteus C889 enzyme
Method: as §1

Sequence of β-lactamase Ps. dalgl. (P16897 18-288): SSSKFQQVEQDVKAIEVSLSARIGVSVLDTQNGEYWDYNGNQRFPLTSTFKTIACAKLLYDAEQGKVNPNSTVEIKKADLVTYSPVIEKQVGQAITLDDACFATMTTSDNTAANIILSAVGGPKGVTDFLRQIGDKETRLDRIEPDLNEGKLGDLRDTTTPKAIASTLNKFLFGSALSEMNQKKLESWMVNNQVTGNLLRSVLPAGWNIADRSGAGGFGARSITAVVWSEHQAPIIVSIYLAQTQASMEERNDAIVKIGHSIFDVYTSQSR
Sequence of β-lactamase Ps. aerug. (P24735 27-397): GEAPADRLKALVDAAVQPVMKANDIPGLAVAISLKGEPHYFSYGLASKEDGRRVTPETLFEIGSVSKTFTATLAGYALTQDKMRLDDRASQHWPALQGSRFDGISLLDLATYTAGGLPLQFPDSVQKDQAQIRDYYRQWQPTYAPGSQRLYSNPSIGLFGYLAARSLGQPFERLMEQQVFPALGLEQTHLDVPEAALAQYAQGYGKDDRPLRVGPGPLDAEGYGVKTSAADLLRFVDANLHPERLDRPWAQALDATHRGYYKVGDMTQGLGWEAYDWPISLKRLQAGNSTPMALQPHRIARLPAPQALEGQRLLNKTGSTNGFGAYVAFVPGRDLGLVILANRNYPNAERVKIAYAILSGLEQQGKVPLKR
Sequence of β-lactamase Staph. Russell (P00807 25-281): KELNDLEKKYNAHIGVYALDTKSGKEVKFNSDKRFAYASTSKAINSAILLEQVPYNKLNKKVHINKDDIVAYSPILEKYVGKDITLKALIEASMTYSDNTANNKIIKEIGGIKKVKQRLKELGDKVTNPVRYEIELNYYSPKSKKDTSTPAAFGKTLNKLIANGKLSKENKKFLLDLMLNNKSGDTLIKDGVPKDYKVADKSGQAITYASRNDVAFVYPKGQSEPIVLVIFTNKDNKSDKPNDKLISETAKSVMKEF
Sequence of β-lactamase E.Coli JT4 (P62593 24-286 limits assumed): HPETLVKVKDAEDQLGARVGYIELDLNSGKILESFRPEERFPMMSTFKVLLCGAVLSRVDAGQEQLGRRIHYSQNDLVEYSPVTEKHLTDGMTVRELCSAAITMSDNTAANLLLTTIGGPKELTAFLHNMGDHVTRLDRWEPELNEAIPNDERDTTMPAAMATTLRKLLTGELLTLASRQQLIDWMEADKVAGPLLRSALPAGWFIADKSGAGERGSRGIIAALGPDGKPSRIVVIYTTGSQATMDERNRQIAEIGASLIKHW

COC(=O)[C@H]1[C@H](CCOS(=O)(=O)c2ccc(C)cc2)O[C@@H]2CC(=O)N21 (relative stereo)
inhibition at 40 µg/mL [1]: 4% | % Inhibition of - lactamases at 40 μg/ml, Citrobac. (β-lactamase Citrobac.): 5% | inhibition at 40 µg/mL (β-lactamase Ps. dalgl.): 11% | % Inhibition of - lactamases at 40 μg/ml, Kleb. ε 70 (β-lactamase Kleb. ε 70): 0% | inhibition at 40 µg/mL (β-lactamase Ps. aerug.): 11% | inhibition at 40 µg/mL (β-lactamase E.Coli JT4): 33%

COC(=O)[C@H]1[C@H](CBr)O[C@@H]2CC(=O)N21 (relative stereo) [CH2 Br, CO2 CH3, (2RS,3RS,5RS)]
inhibition at 40 µg/mL [1]: 12% | I50 values (in parentheses), Citrobac. (β-lactamase Citrobac.; value printed in parentheses): 10.3 µg/mL | inhibition at 40 µg/mL (β-lactamase Ps. dalgl.): 17% | % Inhibition of - lactamases at 40 μg/ml, Kleb. ε 70 (β-lactamase Kleb. ε 70): 4% | inhibition at 40 µg/mL (β-lactamase Ps. aerug.): 8% | % Inhibition of - lactamases at 40 μg/ml, Proteus C889 (β-lactamase Proteus C889): 42% | inhibition at 40 µg/mL (β-lactamase E.Coli JT4): 42%

COC(=O)[C@H]1[C@H](CCO)O[C@@H]2CC(=O)N21 (relative stereo) [CH2 CH2 OH, Me, (2RS,3SR,5RS)]
inhibition at 40 µg/mL [1]: 10% | % Inhibition of - lactamases at 40 μg/ml, Citrobac. (β-lactamase Citrobac.): 2% | inhibition at 40 µg/mL (β-lactamase Ps. dalgl.): 0% | % Inhibition of - lactamases at 40 μg/ml, Kleb. ε 70 (β-lactamase Kleb. ε 70): 14% | inhibition at 40 µg/mL (β-lactamase Ps. aerug.): 10% | % Inhibition of - lactamases at 40 μg/ml, Proteus C889 (β-lactamase Proteus C889): 29% | inhibition at 40 µg/mL (β-lactamase E.Coli JT4): 15%

O=C(O)[C@H]1CO[C@@H]2CC(=O)N12 (relative stereo) [H, Na, (2RS,5RS)]
inhibition at 40 µg/mL [1]: 33% | % Inhibition of - lactamases at 40 μg/ml, Citrobac. (β-lactamase Citrobac.): 0% | inhibition at 40 µg/mL (β-lactamase Ps. dalgl.): 0% | % Inhibition of - lactamases at 40 μg/ml, Kleb. ε 70 (β-lactamase Kleb. ε 70): 78% | inhibition at 40 µg/mL (β-lactamase Ps. aerug.): 14% | inhibition at 40 µg/mL (β-lactamase E.Coli JT4): 28%

O=C(OCc1ccccc1)[C@@H]1O[C@@H]2CC(=O)N2[C@H]1C(=O)OCc1ccccc1 [CO2 CH2 Ph, CO2 CH2 Ph, (2R,3R,5R), Dibenzyl (2R, 3R, 5R)-7-oxo-4-oxa-1-azabicyclo-[3.2.0]heptan-2,3-Dicarboxylate]
inhibition at 40 µg/mL [1]: 0% | % Inhibition of - lactamases at 40 μg/ml, Citrobac. (β-lactamase Citrobac.): 2% | inhibition at 40 µg/mL (β-lactamase Ps. dalgl.): 26% | % Inhibition of - lactamases at 40 μg/ml, Kleb. ε 70 (β-lactamase Kleb. ε 70): 56% | inhibition at 40 µg/mL (β-lactamase Ps. aerug.): 9% | % Inhibition of - lactamases at 40 μg/ml, Proteus C889 (β-lactamase Proteus C889): 23% | inhibition at 40 µg/mL (β-lactamase E.Coli JT4): 65%
